According to patent US10626112B2, “Heterocyclic sulfonamide derivative and medicine comprising same” (EA PHARMA CO., LTD., priority 2014, dated 2020):

target: human TRPA1 (Homo sapiens (Human), UniProt O75762); assay: Measurement of TRPA1 antagonist activity (1): intracellular calcium increase; type: cell-based; details: 293T cells transfected with human TRPA1 expression plasmid; allylisothiocyanate 20 μM stimulation; intracellular calcium fluorescence; read-out: hTRPA1 IC50
In short: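 HEK293T cells transiently transfected with full-length human TRPA1, loaded with Calcium4 dye in HBSS/20 mM HEPES pH 7.2. Test compound preincubated 10 min, then allylisothiocyanate added at 20 μM final and fluorescence change followed for 5 min. IC50 from sigmoid fit of percent inhibition relative to agonist and buffer controls.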

Sequence of human TRPA1 (O75762 whole entry): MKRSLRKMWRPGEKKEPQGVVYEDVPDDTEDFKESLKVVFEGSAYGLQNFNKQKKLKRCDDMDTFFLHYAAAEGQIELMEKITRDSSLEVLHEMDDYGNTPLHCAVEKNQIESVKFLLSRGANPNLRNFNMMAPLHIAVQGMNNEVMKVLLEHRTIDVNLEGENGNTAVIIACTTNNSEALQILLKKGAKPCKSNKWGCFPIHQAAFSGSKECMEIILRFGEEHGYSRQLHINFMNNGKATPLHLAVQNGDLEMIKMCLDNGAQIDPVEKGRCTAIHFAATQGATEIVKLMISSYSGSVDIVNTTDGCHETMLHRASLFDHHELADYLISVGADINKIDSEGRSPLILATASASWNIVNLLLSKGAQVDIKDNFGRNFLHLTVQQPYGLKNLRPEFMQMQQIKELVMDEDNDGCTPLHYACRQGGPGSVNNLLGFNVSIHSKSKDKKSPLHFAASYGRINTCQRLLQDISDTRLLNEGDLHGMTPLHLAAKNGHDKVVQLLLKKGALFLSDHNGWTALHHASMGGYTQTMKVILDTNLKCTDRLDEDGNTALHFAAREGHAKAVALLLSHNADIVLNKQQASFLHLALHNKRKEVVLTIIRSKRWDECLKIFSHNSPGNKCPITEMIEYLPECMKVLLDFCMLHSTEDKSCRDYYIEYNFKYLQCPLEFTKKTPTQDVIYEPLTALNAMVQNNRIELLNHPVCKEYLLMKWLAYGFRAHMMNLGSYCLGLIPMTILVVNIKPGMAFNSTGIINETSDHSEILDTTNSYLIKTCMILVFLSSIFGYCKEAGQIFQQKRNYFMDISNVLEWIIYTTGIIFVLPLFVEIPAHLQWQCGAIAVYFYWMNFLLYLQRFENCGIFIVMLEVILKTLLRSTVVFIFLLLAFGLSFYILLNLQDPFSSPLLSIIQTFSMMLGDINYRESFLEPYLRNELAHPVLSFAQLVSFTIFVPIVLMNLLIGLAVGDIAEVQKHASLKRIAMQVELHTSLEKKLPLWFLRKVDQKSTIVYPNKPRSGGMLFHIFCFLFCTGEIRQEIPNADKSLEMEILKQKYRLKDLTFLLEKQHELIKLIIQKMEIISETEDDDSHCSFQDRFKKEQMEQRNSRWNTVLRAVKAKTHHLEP

Row | IC50 | SMILES
1 | 30 nM | O=C(NCc1ccnc(-c2ccccc2O)c1)[C@@H]1CCCN1S(=O)(=O)c1cc2cc(F)ccc2o1 [Example 135, (2S)-1-(5-fluorobenzofuran-2-yl)sulfonyl-N-[[2-(2-hydroxyphenyl)-4-pyridyl]methyl]pyrrolidine-2-carboxamide]
2 | 180 nM | O=C(NCc1ccnc(-c2ccccc2O)c1)[C@@H]1CCCN1S(=O)(=O)c1cc2ccccc2o1 [Example 120, (2S)-1-(benzofuran-2-ylsulfonyl)-N-[[2-(2-hydroxyphenyl)-4-pyridyl]methyl]pyrrolidine-2-carboxamide]
3 | 86 nM | O=C(NCc1ccnc(NCc2ccc(C(F)(F)F)cc2)c1)[C@@H]1CCCN1S(=O)(=O)c1cc2ccccc2o1 [Example 186, (2S)-1-(benzofuran-2-ylsulfonyl)-N-[[2-[[4-(trifluoromethyl)phenyl]methylamino]-4-pyridyl]methyl]pyrrolidine-2-carboxamide]
4 | 14 nM | N#Cc1ccc(-c2cc(CNC(=O)[C@@H]3CCCN3S(=O)(=O)c3cc4ccccc4o3)ccn2)cc1 [Example 117, (2S)-1-(benzofuran-2-ylsulfonyl)-N-[[2-(4-cyanophenyl)-4-pyridyl]methyl]pyrrolidine-2-carboxamide]
5 | 260 nM | O=C(NCc1ccc(-c2cccc(C(F)(F)F)c2)cc1)[C@@H]1CCCN1S(=O)(=O)c1cc2ccccc2o1 [Example 166, (2S)-1-(benzofuran-2-ylsulfonyl)-N-[[4-[3-(trifluoromethyl)phenyl]-phenyl]methyl]pyrrolidine-2-carboxamide]
6 | 15 nM | O=C(NCc1cccc(-c2ccccc2)c1)[C@@H]1CCCN1S(=O)(=O)c1cc2cc(F)ccc2o1 [Example 77, (2S)-1-(5-fluorobenzofuran-2-yl)sulfonyl-N-[(3-phenylphenyl)methyl]pyrrolidine-2-carboxamide]
7 | 130 nM | O=C(NCc1ccccc1-c1ccccc1)[C@@H]1CCCN1S(=O)(=O)c1cc2cc(F)ccc2o1 [Example 78, (2S)-1-(5-fluorobenzofuran-2-yl)sulfonyl-N-[(2-phenylphenyl)methyl]pyrrolidine-2-carboxamide]
8 | 230 nM | N#Cc1ccc(-c2ccc(CNC(=O)[C@@H]3CCCN3S(=O)(=O)c3cc4ccccc4o3)cc2)cc1 [Example 170, (2S)-1-(benzofuran-2-ylsulfonyl)-N-[[4-(4-cyanophenyl)phenyl]methyl]-pyrrolidine-2-carboxamide]
9 | 890 nM | O=C(NCc1cccc([S+]([O-])Cc2ccccc2)c1)[C@@H]1CCCN1S(=O)(=O)c1cc2ccccc2o1 (stereo partly drawn) [Example 188, (2S)-1-(benzofuran-2-ylsulfonyl)-N-[(3-benzylsulfinylphenyl)methyl]pyrrolidine-2-carboxamide]
10 | 2.5 nM | O=C(NCc1cc(-c2ccc(C(F)(F)F)cc2O)ncn1)[C@@H]1CCCN1S(=O)(=O)c1cc2ccccc2o1 [Example 288, (2S)-1-(benzofuran-2-ylsulfonyl)-N-[[6-[2-hydroxy-4-(trifluoromethyl)phenyl]pyrimidin-4-yl]methyl]pyrrolidine-2-carboxamide]
11 | 7.5 nM | O=C(NCc1cccc(OCc2ccsc2)c1)[C@@H]1CCCN1S(=O)(=O)c1cc2ccccc2o1 [Example 6, (2S)-1-(benzofuran-2-ylsulfonyl)-N-[[3-(3-thienylmethoxy)phenyl]methyl]pyrrolidine-2-carboxamide]
12 | 180 nM | O=C(NCc1ccc(-c2ccc(F)cc2)cc1)[C@@H]1CCCN1S(=O)(=O)c1cc2ccccc2o1 [Example 168, (2S)-1-(benzofuran-2-ylsulfonyl)-N-[[4-(4-fluorophenyl)phenyl]methyl]-pyrrolidine-2-carboxamide]

More lines, now with the values behind:

Row | SMILES | IC50
13 | C[C@H](NS(=O)(=O)c1cc2cc(F)ccc2o1)C(=O)NCc1cccc(-c2cnc(C(F)(F)F)nc2)c1 [Example 233, (2S)-2-[(5-fluorobenzofuran-2-yl)sulfonylamino]-N-[[3-[2-(trifluoromethyl)pyrimidin-5-yl]phenyl]methyl]propanamide] | 10 nM
14 | C[C@H](NS(=O)(=O)c1cc2cc(F)ccc2o1)C(=O)NCc1cc(-c2ccc(C(F)(F)F)cn2)ncn1 [Example 247, (2S)-2-[(5-fluorobenzofuran-2-yl)sulfonylamino]-N-[[6-[5-(trifluoromethyl)-2-pyridyl]pyrimidin-4-yl]methyl]propanamide] | 64 nM
15 | O=C(NCc1ccc(-c2ccc(C(F)(F)F)cc2)cc1)[C@@H]1CCCN1S(=O)(=O)c1cc2ccccc2o1 [Example 165, (2S)-1-(benzofuran-2-ylsulfonyl)-N-[[4-[4-(trifluoromethyl)phenyl]-phenyl]methyl]pyrrolidine-2-carboxamide] | 190 nM
16 | O=C(NCc1ccnc(-c2ccc(C(F)(F)F)cc2)c1)[C@@H]1[C@@H](O)CCN1S(=O)(=O)c1cc2cc(F)ccc2o1 [Example 95, (2S,3S)-1-(5-fluorobenzofuran-2-yl)sulfonyl-3-hydroxy-N-[[2-[4-(trifluoromethyl)phenyl]-4-pyridyl]methyl]pyrrolidine-2-carboxamide] | 5.4 nM
17 | O=C(NCc1cccc(-c2ccc(C(F)(F)F)cc2)n1)[C@@H]1CCCN1S(=O)(=O)c1cc2cc(F)ccc2o1 [Example 144, (2S)-1-(5-fluorobenzofuran-2-yl)sulfonyl-N-[[6-[4-(trifluoromethyl)phenyl]-2-pyridyl]methyl]pyrrolidine-2-carboxamide] | 47 nM
18 | C[C@H](NS(=O)(=O)c1cc2ccccc2o1)C(=O)NCc1cccc(-c2ccc(C(F)(F)F)nc2)c1 [Example 101, (2S)-2-(benzofuran-2-ylsulfonylamino)-N-[[3-[6-(trifluoromethyl)-3-pyridyl]phenyl]methyl]propanamide] | 27 nM
19 | CN(C)c1cncc(COc2cccc(CNC(=O)[C@@H]3CCCN3S(=O)(=O)c3cc4cc(F)ccc4o3)c2)c1 [Example 23, (2S)-N-[[3-[[5-(dimethylamino)-3-pyridyl]methoxy]phenyl]-methyl]-1-(5-fluorobenzofuran-2-yl)sulfonyl-pyrrolidine-2-carboxamide] | 110 nM
20 | O=C(NCc1cccc(OCc2ccc(C(F)(F)F)cc2)c1)[C@@H]1CCCN1S(=O)(=O)c1cc2cccc(F)c2o1 [Example 39, (2S)-1-(7-fluorobenzofuran-2-yl)sulfonyl-N-[[3-[[4-(trifluoromethyl)phenyl]methoxy]-phenyl]methyl]pyrrolidine-2-carboxamide] | 190 nM
21 | O=C(NCc1cc(-c2ccc(C(F)(F)F)cc2)ncn1)[C@@H]1[C@@H](O)CCN1S(=O)(=O)c1cc2ccccc2o1 [Example 226, (2S,3S)-1-(benzofuran-2-ylsulfonyl)-3-hydroxy-N-[[6-[4-(trifluoromethyl)-phenyl]pyrimidin-4-yl]methyl]pyrrolidine-2-carboxamide] | 25 nM
22 | O=C(NCc1ccc(O)c(-c2ccc(C(F)(F)F)cn2)c1)[C@@H]1CCCN1S(=O)(=O)c1cc2cnccc2o1 [Example 273, (2S)-1-furo[3,2-c]pyridin-2-ylsulfonyl-N-[[4-hydroxy-3-[5-(trifluoromethyl)-2-pyridyl]phenyl]methyl]-pyrrolidine-2-carboxamide] | 1.6 nM
23 | C[C@H](NS(=O)(=O)c1cc2ccccc2o1)C(=O)NCc1cccc(-c2ccc(C(F)(F)F)cn2)c1 [Example 102, (2S)-2-(benzofuran-2-ylsulfonylamino)-N-[[3-[5-(trifluoromethyl)-2-pyridyl]phenyl]methyl]propanamide] | 28 nM
24 | C[C@H](NS(=O)(=O)c1cc2cc(F)ccc2o1)C(=O)NCc1cccc(OCc2ccc(C#N)cc2)c1 [Example 184, (2S)-N-[[3-[(4-cyanophenyl)methoxy]phenyl]methyl]-2-[(5-fluorobenzofuran-2-yl)sulfonylamino]propanamide] | 41 nM
25 | O=C(NCc1cccc(OCc2cccnc2)c1)[C@@H]1CCCN1S(=O)(=O)c1cc2cc(F)ccc2o1 [Example 14, (2S)-1-(5-fluorobenzofuran-2-yl)sulfonyl-N-[[3-(3-pyridylmethoxy)phenyl]-methyl]pyrrolidine-2-carboxamide] | 20 nM
26 | O=C(NCc1cc(-c2ccc(C(F)(F)F)cc2O)ccn1)[C@@H]1CCCN1S(=O)(=O)c1cc2cc(F)ccc2o1 [Example 280, (2S)-1-(5-fluorobenzofuran-2-yl)sulfonyl-N-[[4-[2-hydroxy-4-(trifluoromethyl)phenyl]-2-pyridyl]methyl]pyrrolidine-2-carboxamide] | 520 nM
27 | O=C(NCc1cccc(OCc2ccc(C(F)(F)F)cc2)c1)[C@@H]1[C@@H](O)CCN1S(=O)(=O)c1cc2ccccc2o1 [Example 45, (2S,3S)-1-(benzofuran-2-ylsulfonyl)-3-hydroxy-N-[[3-[[4-(trifluoromethyl)phenyl]methoxy]-phenyl]methyl]pyrrolidine-2-carboxamide] | 35 nM
28 | CNc1ccc(-c2ccc(F)c(CNC(=O)[C@@H]3CCCN3S(=O)(=O)c3cc4ccccc4o3)c2)cn1 [Example 177, (2S)-1-(benzofuran-2-ylsulfonyl)-N-[[2-fluoro-5-[6-(methylamino)-3-pyridyl]phenyl]methyl]pyrrolidine-2-carboxamide] | 300 nM
29 | C[C@H](NS(=O)(=O)c1cc2cc(F)ccc2o1)C(=O)NCc1cc(-c2ccc(C(F)(F)F)cc2)ncn1 [Example 109, (2S)-2-[(5-fluorobenzofuran-2-yl)sulfonylamino]-N-[[6-[4-(trifluoromethyl)phenyl]pyrimidin-4-yl]methyl]propanamide] | 4.7 nM
30 | CN(C)c1cccc(COc2cccc(CNC(=O)[C@@H]3CCCN3S(=O)(=O)c3cc4cc(F)ccc4o3)c2)c1 [Example 12, (2S)-N-[[3-[[3-(dimethylamino)phenyl]methoxy]phenyl]-methyl]-1-(5-fluorobenzofuran-2-yl)sulfonyl-pyrrolidine-2-carboxamide] | 8.1 nM
31 | N#Cc1ccc(COc2cccc(CNC(=O)[C@@H]3CCCN3S(=O)(=O)c3cc4cc(F)ccc4o3)c2)cc1 [Example 11, (2S)-N-[[3-[(4-cyanophenyl)methoxy]phenyl]methyl]-1-(5-fluorobenzofuran-2-yl)sulfonyl-pyrrolidine-2-carboxamide] | 1 nM
